Measured values from patent US9469836B2, “Antifungal metabolites from fungal endophytes of Pinus strobus” (J.D. IRVING, LIMITED, priority 2011, dated 2016).

Legend:
Assay type in all cases: cell-based
[1] = tested on: Saccharomyces cerevisae; experiment: Quantitative cell density test, OD 600 nm, 96 well microplates, yeast; settings: for reduction in cell density vs controls (OD 600 nm): S. cerevisae, 24 hours, 10 μL of 1 mg/mL (˜4 μM) compound in DMSO added to 200 μL culture, ANOVA p<0.000
From the text: (§1) The results of the Oxford disc assay using the isolated compounds confirmed these observations for both S. cerevisae and Microbotryum violaceum. A quantitative test protocol based on cell density using OD measurements at 600 nm in 96 well microplates was employed.
(§2) Disc diffusion assays with the extracts were employed for preliminary antifungal testing using Saccharomyces cerevisae for all strains (Sumarah et al., 2008b). […] The individual compounds were further tested using these two fungi in 96 well microplates where 10 μL of 1 mg/mL (˜4 μM) of each compound in DMSO was added to 200 μL of the above macerated cultures. The plates were incubated at room temperature with constant shaking and were measured at 600 nm. The antifungal compound nystatin was used as the positive control for all experiments.

[2] = tested on: Saccharomyces cerevisae; experiment: Disc diffusion (Oxford) antifungal assay, yeast; settings: isolated compounds
Description: (§3) The term “toxicity” as used herein with respect to the effect of a toxin compound or toxigenic endophyte strain on a pest means inhibited or reduced growth and/or pest death in the presence of the toxin compound or toxigenic endophyte compared to a control. For example, where toxicity is assessed using a disc diffusion assay, which uses a disc comprising a compound, which is placed on a microbial lawn, the compound is a toxic compound if it results in a zone of clearing around the disc.
(§4) From these strains the new aliphatic polyketide compound 1 and three related sesquiterpenes (IIa), (IIb) and (III) were isolated and characterized (see FIG. 1). Compound (III) is reported for the first time as a natural product and the E/Z conformational isomers (IIa) and (IIb) are reported as new structures (see FIG. 1). Additionally, the three known macrolides; pyrenophorol (IV), dihydropyrenophorin (V) and pyrenophorin (VI) were isolated and identified. Their structures were elucidated by spectroscopic analyses including 2D NMR, HRMS and by comparison to literature data where available.
as §1, §2

[3] = tested on: Microbotryum violaceum; experiment: Disc diffusion (Oxford) antifungal assay, rust; settings: isolated compounds, rust grown on MYP
Description: as §3, §4, §1, §2

[4] = tested on: Microbotryum violaceum; experiment: Quantitative cell density test, OD 600 nm, 96 well microplates, rust; settings: M. violaceum, 48 hours; 10 μL of 1 mg/mL (˜4 μM) compound in DMSO added to 200 μL culture; ANOVA p<0.000
From the text: as §1, §2

| SMILES | reduction in cell density vs controls (OD 600 nm) [1] | rank of antifungal effect among compounds 1, (III) and (IV) ([1]; based on results of the response at 24 h) | antifungal activity against Saccharomyces cerevisae [2] | antifungal activity against Microbotryum violaceum [3] | antifungal activity against Microbotryum violaceum ([3]; listed as 2) | reduction in cell density vs controls (OD 600 nm) [4] | antifungal activity against Microbotryum violaceum ([3]; listed as (2E,4Z)-methyl-6-acetoxy-5-acetyl-7-oxohepta-2,4-dienoate) | antifungal activity against Microbotryum violaceum ([3]; listed as 5) |
| --- | --- | --- | --- | --- | --- | --- | --- | --- |
| CC1(C)CCCC(C)(c2ccc(CO)cc2O)O1 (stereo not shown) [Compound (III), 5-(hydroxymethyl)-2-(2′,6′,6′-trimethyltetrahydro-2H-pyran-2-yl)phenol] | Statistically-significant reductions in cell density | most antifungal | antifungal activity | antifungal activity | antifungal activity | Statistically-significant reductions in cell density |  |  |
| COC(=O)/C=C\C=C(\C=O)C(OC(C)=O)C(C)=O (stereo not shown) [Compound 1, (2Z,4E)-methyl-6-acetoxy-5-formyl-7-oxo-octa-2,4-dienoate] | Statistically-significant reductions in cell density |  | antifungal activity | antifungal activity |  | Statistically-significant reductions in cell density | antifungal activity |  |
| C[C@@H]1CC[C@H](O)/C=C/C(=O)O[C@H](C)CC[C@H](O)/C=C/C(=O)O1 [Compound (IV), pyrenophorol] | Statistically-significant reductions in cell density |  | antifungal activity | antifungal activity |  | Statistically-significant reductions in cell density |  | antifungal activity |
